Measurements from publication PMC7180491, “Synthesis and Biological Evaluation of Novel (thio)semicarbazone-Based Benzimidazoles as Antiviral Agents against Human Respiratory Viruses” (Molecules, 2020).
“Also recorded” adds a separate entry of the source. Read-outs that look alike come from different tables or passages of the source.

Columns and labels:
in vitro [1] = conditions: human
[2] = system: Influenza A/H1N1 (A/Ned/378/05); assay: microbe, parasite or virus in culture; assay type: cell-based, human influenza virus; conditions: read-out: Antiviral EC50 Influenza A/H1N1
[3] = system: Respiratory syncytial virus (RSV; strain Long); assay: microbe, parasite or virus in culture; assay type: cell-based
in vitro [4] = conditions: African green monkey
in vitro [5] = conditions: human; remark: listed apart in the source
in vitro [6] = conditions: dog
human coronavirus 229E = assay: Antiviral assay against human coronavirus 229E in HEL cells, MTS readout; assay type: cell-based
[7] = system: Influenza A/H3N2 (A/HK/7/87); assay: microbe, parasite or virus in culture; assay type: cell-based, human influenza virus; conditions: read-out: Antiviral EC50 Influenza A/H3N2
[8] = system: Respiratory syncytial virus (RSV; strain Long); assay type: cell-based; conditions: read-out: Anti-RSV EC50, microscopic method
[9] = system: four mammalian cell lines
[10] = human respiratory syncytial virus, HEp-2, read-out: Antiviral EC50 RSV
[11] = Human coronavirus 229E, MTS assay, HEL cells

Molecule: CCN(CC)CCCn1c(Cc2ccccc2)nc2cc(C(C)=NNC(N)=S)ccc21 [Compound 8, 2-(1-{2-Benzyl-1-[3-(N,N-diethylamino)propyl]-1H-benzo[d]imidazol-5-yl}ethylidene)-hydrazine-1-carbothioamide]
- CC50 (in vitro [1]): > 100 µM
- EC50 ([2]; Influenza A virus, H1N1, MDCK): 38 µM
- EC50 [3, 10]: > 100 µM
- CC50 (in vitro [4]): 44 µM
- CC50 (in vitro [5]): > 100 µM
- CC50 (in vitro [6]): > 100 µM
- EC50 (human coronavirus 229E; [11]): 56 µM
- EC50 ([7]; Influenza A virus, H3N2, MDCK): > 100 µM

Molecule: CC(=NNC(N)=S)c1ccc2c(c1)nc(Cc1ccc(Cl)cc1)n2CCCN(C)C [Compound 4, 2-{1-[2-(4-Chlorobenzyl)-1-[3-(N,N-dimethylamino)propyl]-1H-benzo[d]imidazol-5-yl]-ethylidene}hydrazine-1-carbothioamide]
- Anti-RSV activity (in words) [3]: poorly effective; also recorded: inactive
- melting point: 110 to 111 °C

Molecule: CC(=NNC(N)=S)c1ccc2c(c1)nc(Cn1nc3ccccc3n1)n2CCCN(C)C [Compound 19, 2-(1-{2-[(2H-Benzo[d][1,2,3]triazol-2-yl)methyl]-1-[3-(N,N-dimethylamino)propyl]-1H-benzo[d]imidazol-5-yl}ethylidene)hydrazine-1-carbothioamide]
- Anti-RSV activity (in words) [3]: inactive
- melting point: 212 to 214 °C

Molecule: CC(=NNC(N)=S)c1ccc2c(c1)nc(Cn1nc3ccccc3n1)n2CCN(C)C
- melting point: 214 to 217 °C

Molecule: 2-(1-{2-[(2H-Benzo[d][1,2,3]triazol-1-yl)methyl]-1-[3-(N,N-dimethylamino)propyl]-1H-benzo[d]imidazol-5-yl}ethylidene)hydrazine-1-carbothioamide [Compound 22]
- EC50 [2]: 41 µM
- EC50 ([3]; read-out: Antiviral EC50 RSV): 7 µM
- CC50 (HEL cells): 100 µM
- CC50 (Vero cells): > 100 µM
- EC50 (human coronavirus 229E): > 100 µM
- EC50 [7]: > 100 µM
- EC50 [8]: 8.9 µM
- CC50 (MDCK cells): > 100 µM
- CC50 (Hep-2 cells): > 100 µM

Molecule: CC(=O)N[C@H]1[C@H]([C@H](O)[C@H](O)CO)OC(C(=O)O)=C[C@@H]1N=C(N)N [Zanamivir, reference compound]
- EC50 ([2]; Influenza A virus, H1N1, MDCK): 0.6 µM
- CC50 (in vitro [6]): > 100 µM
- EC50 ([7]; Influenza A virus, H3N2, MDCK): 31 µM

Molecule: CC(=NNC(N)=O)c1ccc2c(c1)nc(Cc1ccc(Cl)cc1)n2CCCN(C)C
- melting point: 211 to 212.5 °C

Molecule: 2-(1-{2-[(2H-Benzo[d][1,2,3]triazol-2-yl)methyl]-1-[3-(N,N-diethylamino)propyl]-1H-benzo[d]imidazol-5-yl}ethylidene)hydrazine-1-carbothioamide [Compound 21]
- Anti-RSV activity (in words) [3]: inactive

Molecule: CC(=NNC(N)=O)c1ccc2c(c1)nc(Cn1nc3ccccc3n1)n2CCN(C)C
- melting point: 209 to 212 °C

Molecule: CCN(CC)CCCn1c(Cc2ccc(OC)cc2)nc2cc(C(C)=NNC(N)=S)ccc21
- melting point: 180.7 to 182.9 °C

Molecule: NC(=O)c1ncn([C@@H]2O[C@H](CO)[C@@H](O)[C@H]2O)n1 [Ribavirin, reference compound]
- EC50 ([2]; Influenza A virus, H1N1, MDCK): 7.4 µM
- EC50 [3, 10]: 6.7 µM
- CC50 (in vitro [4]): > 250 µM
- CC50 (in vitro [5]): > 250 µM
- EC50 ([7]; Influenza A virus, H3N2, MDCK): 7.5 µM

Molecule: CCN(CC)CCCn1c(Cc2ccc(OC)cc2)nc2cc(C(C)=NNC(N)=O)ccc21 [Compound 17, 2-(1-{1-[3-(N,N-Diethylamino)propyl]-2-(4-methoxybenzyl)-1H-benzo[d]imidazol-5-yl}-ethylidene)hydrazine-1-carboxamide]
- Cytotoxicity (in words) [9]: produced cytotoxicity in two of the four cell lines
- EC50 ([2]; Influenza A virus, H1N1, MDCK): 47 µM
- EC50 [3, 10]: > 100 µM
- CC50 (in vitro [4]): 43 µM
- CC50 (in vitro [6]): > 100 µM
- EC50 (human coronavirus 229E; [11]): 41 µM
- EC50 ([7]; Influenza A virus, H3N2, MDCK): > 100 µM
- melting point: 190 to 192 °C

Molecule: dextran sulfate MW 10,000 [DS-10,000, reference compound]
- Antiviral EC50 RSV [3]: 0.01 µg/mL

Molecule: CCN(CC)CCCn1c(Cc2ccccc2)nc2cc(C(C)=NNC(N)=O)ccc21 [Compound 16, 2-(1-{1-[3-(N,N-Diethylamino)propyl]-2-benzyl-1H-benzo[d]imidazol-5-yl}ethylidene)-hydrazine-1-carboxamide]
- CC50 (in vitro [1]): > 100 µM
- EC50 ([2]; Influenza A virus, H1N1, MDCK): 47 µM
- EC50 [3, 10]: > 100 µM
- CC50 (in vitro [4]): > 100 µM
- CC50 (in vitro [5]): > 100 µM
- CC50 (in vitro [6]): > 100 µM
- EC50 (human coronavirus 229E; [11]): 39 µM
- EC50 ([7]; Influenza A virus, H3N2, MDCK): > 100 µM

B1: UDA: UDA lectin, reference in the coronavirus 229E assay (protein, UniProt P11218 24-372, looked up)
Lectin/endochitinase 1: QRCGSQGGGGTCPALWCCSIWGWCGDSEPYCGRTCENKCWSGERSDHRCGAAVGNPPCGQDRCCSVHGWCGGGNDYCSGSKCQYRCSSSVRGPRVALSGNSTANSIGNVVVTEPLFDQMFSHRKDCPSQGFYSYHSFLVAAESFPAFGTIGDVATRKREVAAFLAHISQATSGERSDVENPHAWGLCHINTTTVTENDFCTSSDWPCAAGKKYSPRGPIQLTHNFNYGLAGQAIGEDLIQNPDLVEKDPIISFKTALWFWMSQHDNKPSCHDIVLNANSAANRIPNKGVIGNIISRAFGHDDFAVRSSSIGFYKRYCDMLGVSYGHDLKYWFDNTPSSEFQRIQMRVAA
- CC50 HEL (HEL cells): >100 µg/mL
- Antiviral EC50 Coronavirus 229E (human coronavirus 229E): 2.2 µg/mL
